This note sets out measurements from patent US20260021122A1, “CANNABINOIDS AND USES THEREOF IN TREATMENT OF A DISEASE” (TECHNION RESEARCH & DEVELOPMENT FOUNDATION LIMITED, priority 2022, published 2026).

Experiment [1] deals with B16F10 tumors. As to the kind of experiment: Mouse tumor model: B16F10 cells transplanted subcutaneously, tumor volume and weight. Type of experiment: in vivo, mice. The following applies: CBG 2.5 mg/kg or 3704 3.75 mg/kg intraperitoneally. On the procedure:
All procedures involving animals were conducted in accordance with the standards approved by the Technion Animal Care and Use Ethics Committee and the studies adhered to the Technion Code for Experimentation on Animals. To induce tumors, B16F10 cells grown to a confluency of ˜75% were resuspended to a concentration of 1×10^6 cells in 200 ul sterile PBS and transplanted subcutaneously into the right flank of 8-10-week-old female WT C57B6/L mice (Envigo, 16.8±0.78 g). After either 24 hours or 3 days, mice were randomly divided into groups and treated as indicated with either a vehicle of Cannabis extract solvent (18:1:1 ratio of DDW+0.9% NaCl, Sigma, Cat #S7653; Cremophor® EL, Cat #238470; Ethanol, Sigma, #Cat 111727), CAN (100 mg/kg), synthetic CBG (2.5 mg/kg) or 3704 (3.75 mg/kg) for 5 days, then 2 days off and again for 4 days. Tumor volume was measured from day 10 to 14 (endpoint) using a vernier caliper and calculated according to the formula […] and all tumors were weighed at the endpoint of the experiments with an analytical scale.

Experiment [2] relates to CSF-1. Nature of the experiment: ELISA of secreted CSF-1 in media of B16F10 cells. The experiment is classed as cell-based, murine. The following applies: summary statement of the discussion. On the procedure:
The media from B16F10 and A375 cell lines, or homogenates from B16F10 tumors, that were treated as indicated for 24 hours, were collected and the protein concentration of MCP-1, MIP-2, C-C Motif Chemokine Ligand 5 (CCL5), and CSF-1 were measured by Quantikine Mouse M-CSF Immunoassay solid-phase ELISA kit (R&D systems, Cat #MMC00) as described in the manufacture's protocol.

The subject of experiment [3] is CD8+ T-cells. Nature of the experiment: BM-MDSCs CD8+ T-cell co-culture suppression assay. The experiment is classed as cell-based, mice. On the procedure: Generated bone marrow-MDSC (BM-MDSCs) were treated with conditioned media for 24 hours, then sorted into MO-MDSC and PMN-MDSC subsets. Concurrently, CD8+ T-cells were isolated from the spleens of healthy female WT C57BL/6 mice (8-12-weck-old). To isolate CD8+ T-cells, spleens were mechanically disintegrated and filtered through a 70 um filter (Alex Red Ltd., Cat #SO SCS702), the red blood cells were lysed with the red blood lysis buffer (Biological industries, Cat #01-888-1B). Then, CD8+ T-cells were isolated using the EasySep Mouse CD8+T-cell isolation kit (Stemcell Technologies, Cat # 19853) according to the manufacturer's protocol. The isolation purity was measured by staining cells before and after isolation with CD8-PECY7 (BioLegend, Cat #100722, Clone 53-6.7) by flow cytometry.
Post-sorted MDSC subpopulations were co-cultured in complete RPMI with CD8+ T-cells that are activated with Dynabeads® Mouse T-Activator CD3/CD28 kit (Cat # 11456D; 12.5 μl/1×10^6 cells). After 48 hours, the activation beads were removed and cells were incubated with eBioscience Cell Stimulation Cocktail (Invitrogen, Cat #00-4970-93) for 3 hours and then also with BD GolgiStop™ Protein Transport Inhibitor (BD Biosciences, Cat #51-2092KZ) for the detection of IFN-γ. Intracellular staining of IFN-γ in CD8+ T-cells was achieved by using the BD Cytofix/Cytoperm™ Kit (BD Biosciences, Cat #554714) as stated in the manufacturer's instructions and then staining with IFN-γ-FITC (BioLegend, Cat #505806, Clone XMG1.2) and GranzymeB-FITC (BioLegend, Cat #372206, clone QA16A02).

Setting [4] is: MO-MDSCs exposed to CM of treated B16F10, 48 hours co-incubation.

Regarding `CCCCCc1cc(O)c(C/C=C(\C)CCC=C(C)C)c(O)c1` [CBG, cannabigerol], the “Tumor weight on day 14 compared to vehicle” value in experiment [1] (nine injections) was “weighed significantly less”. For the same compound, in experiment [1] (nine injections from day 3, measured daily day 10 to 14), the “Tumor volume compared to the vehicle-treated group” value is given as “significantly lower in the CBG-treated group already at day 12”. For the same compound, in experiment [2], the “efficiency of CSF-1 secretion reduction, comparison between treatments (discussion)” value is recorded as “reduce CSF-1 secretion more efficiently than the psychoactive THC”. In experiment [3] (setting [4]), the “CD8+ IFN-γ expression, co-culture with MO-MDSCs” value is on record as “restoration of CD8+ IFN-γ expression in a dose-dependent manner” and the “GrzB expression in CD8+ T-cells co-cultured with MO-MDSCs” value is given as “trend of restored GrzB expression”. Moreover, the “GrzB expression in CD8+ T-cells co-cultured with PMN-MDSCs” value in experiment [3] (PMN-MDSC exposed to CM of treated B16F10, 48 hours co-incubation) is “trend of reduced GrzB expression”. Further, the “CD8+ IFN-γ expression, co-culture with PMN-MDSCs” value in experiment [3] (PMN-MDSCs exposed to CM of treated B16F10, 48 hours co-incubation) is recorded as “no significant changes with either of the treatments”.
